We go through seven compounds from patent publication US11046658B2, “Aminopyrazine derivatives as PI3K-γ inhibitors” (Incyte Corporation, priority 2018, dated 2021).

pIC50: −log10 of the molar value. Where a name gives a salt, the structure may show the parent alone. Read-outs that look alike come from different tables or passages of the source.

Broadly, the pIC50 is the negative decadic logarithm of the IC50, by convention in mol/L.

The target of assay [1] is PI3Kγ (p110γ) Recombinant Human Protein (Homo sapiens (Human), UniProt P48736). The assay can be described thus: PI3K-γ Scintillation Proximity Assay. The class given is biochemical. As to conditions: 2 μM ATP, 20 μM PIP2. From the text: Materials: [γ-^33P]ATP (10 mCi/mL) and Wheat Germ Agglutinin (WGA) YSi SPA Scintillation Beads was purchased from Perkin Elmer (Waltham, Mass.). Lipid kinase substrate, D-myo-Phosphatidylinositol 4,5-bisphosphate (PtdIns(4,5)P2)D (+)-sn-1,2-di-O-octanoylglyceryl, 3-O-phospho linked (PIP2), CAS 204858-53-7, was purchased from Echelon Biosciences (Salt Lake City, Utah). PI3Kγ (p110γ) Recombinant Human Protein was purchased from Life technology (Grand Island, N.Y.). ATP, MgCl2, DTT, EDTA, MOPS and CHAPS were purchased from Sigma Aldrich (St. Louis, Mo.).
Sequence of PI3Kγ (p110γ) Recombinant Human Protein (P48736 whole entry): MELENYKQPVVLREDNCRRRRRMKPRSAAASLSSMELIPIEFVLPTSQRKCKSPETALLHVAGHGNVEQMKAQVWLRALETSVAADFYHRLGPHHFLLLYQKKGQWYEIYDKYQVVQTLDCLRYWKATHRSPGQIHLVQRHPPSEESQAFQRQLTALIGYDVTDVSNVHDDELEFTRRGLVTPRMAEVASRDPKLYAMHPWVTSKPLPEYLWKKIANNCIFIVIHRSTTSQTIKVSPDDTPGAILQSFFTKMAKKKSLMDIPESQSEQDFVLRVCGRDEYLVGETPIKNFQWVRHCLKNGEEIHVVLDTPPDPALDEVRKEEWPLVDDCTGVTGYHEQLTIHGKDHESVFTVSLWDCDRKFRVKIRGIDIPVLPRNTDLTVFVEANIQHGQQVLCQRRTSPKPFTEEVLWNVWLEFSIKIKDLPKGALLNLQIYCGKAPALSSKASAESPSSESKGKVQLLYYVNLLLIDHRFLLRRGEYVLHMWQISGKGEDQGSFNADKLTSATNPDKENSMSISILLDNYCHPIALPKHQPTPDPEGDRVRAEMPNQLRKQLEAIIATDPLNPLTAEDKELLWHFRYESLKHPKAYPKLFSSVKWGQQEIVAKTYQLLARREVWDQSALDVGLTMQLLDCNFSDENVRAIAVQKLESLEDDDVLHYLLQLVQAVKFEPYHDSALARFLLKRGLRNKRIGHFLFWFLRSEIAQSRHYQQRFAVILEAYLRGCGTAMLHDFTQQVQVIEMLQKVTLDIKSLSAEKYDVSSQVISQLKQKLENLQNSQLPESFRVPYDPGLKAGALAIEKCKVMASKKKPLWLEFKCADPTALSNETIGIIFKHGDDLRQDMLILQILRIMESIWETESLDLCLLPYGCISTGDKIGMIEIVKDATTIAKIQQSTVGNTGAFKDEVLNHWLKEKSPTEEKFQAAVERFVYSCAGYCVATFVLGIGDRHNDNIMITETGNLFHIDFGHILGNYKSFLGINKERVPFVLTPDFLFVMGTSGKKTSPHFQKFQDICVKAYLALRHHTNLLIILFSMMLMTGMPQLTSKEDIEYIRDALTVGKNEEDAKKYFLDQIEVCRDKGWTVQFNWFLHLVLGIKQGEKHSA
(§1) The kinase reaction was conducted in polystyrene 384-well Greiner Bio-one white plate from Thermo Fisher Scientific in a final volume of 25 μL. Inhibitors were first diluted serially in DMSO and added to the plate wells before the addition of other reaction components. The final concentration of DMSO in the assay was 2%. The PI3Kγ assay was carried out at room temperature in 20 mM MOPS, pH 6.7, 10 mM MgCl2, 5 mM DTT and CHAPS 0.03%. Reactions were initiated by the addition of ATP, the final reaction mixture consisted of 20 μM PIP2, 2 μM ATP, 0.5 μCi [γ-^33P] ATP, 13 nM PI3Kγ. Reactions were incubated for 120 min and terminated by the addition of 40 μL SPA beads suspended in quench buffer: 163 mM potassium phosphate pH 7.8, 20% glycerol, 25 mM EDTA. The final concentration of SPA beads is 1.0 mg/mL. After the plate sealing, plates were shaken overnight at room temperature and centrifuged at 1500 rpm for 10 min, the radioactivity of the product was determined by scintillation counting on Topcount (Perkin-Elmer). IC50 determination was performed by fitting the curve of percent of the solvent control activity versus the log of the inhibitor concentration using the GraphPad Prism 6.0 software.
In general terms: SPA uses beads or plates that emit light when radiolabelled molecules are held near them.

For assay [2], the target named is PI3Kδ (p110δ/p85α) Recombinant Human Protein (Homo sapiens (Human), UniProt O00329). The assay can be described thus: PI3Kδ Scintillation Proximity Assay. The class given is biochemical. As to conditions: 2 μM ATP, 20 μM PIP2.
Sequence of PI3Kδ (p110δ/p85α) Recombinant Human Protein (O00329 whole entry): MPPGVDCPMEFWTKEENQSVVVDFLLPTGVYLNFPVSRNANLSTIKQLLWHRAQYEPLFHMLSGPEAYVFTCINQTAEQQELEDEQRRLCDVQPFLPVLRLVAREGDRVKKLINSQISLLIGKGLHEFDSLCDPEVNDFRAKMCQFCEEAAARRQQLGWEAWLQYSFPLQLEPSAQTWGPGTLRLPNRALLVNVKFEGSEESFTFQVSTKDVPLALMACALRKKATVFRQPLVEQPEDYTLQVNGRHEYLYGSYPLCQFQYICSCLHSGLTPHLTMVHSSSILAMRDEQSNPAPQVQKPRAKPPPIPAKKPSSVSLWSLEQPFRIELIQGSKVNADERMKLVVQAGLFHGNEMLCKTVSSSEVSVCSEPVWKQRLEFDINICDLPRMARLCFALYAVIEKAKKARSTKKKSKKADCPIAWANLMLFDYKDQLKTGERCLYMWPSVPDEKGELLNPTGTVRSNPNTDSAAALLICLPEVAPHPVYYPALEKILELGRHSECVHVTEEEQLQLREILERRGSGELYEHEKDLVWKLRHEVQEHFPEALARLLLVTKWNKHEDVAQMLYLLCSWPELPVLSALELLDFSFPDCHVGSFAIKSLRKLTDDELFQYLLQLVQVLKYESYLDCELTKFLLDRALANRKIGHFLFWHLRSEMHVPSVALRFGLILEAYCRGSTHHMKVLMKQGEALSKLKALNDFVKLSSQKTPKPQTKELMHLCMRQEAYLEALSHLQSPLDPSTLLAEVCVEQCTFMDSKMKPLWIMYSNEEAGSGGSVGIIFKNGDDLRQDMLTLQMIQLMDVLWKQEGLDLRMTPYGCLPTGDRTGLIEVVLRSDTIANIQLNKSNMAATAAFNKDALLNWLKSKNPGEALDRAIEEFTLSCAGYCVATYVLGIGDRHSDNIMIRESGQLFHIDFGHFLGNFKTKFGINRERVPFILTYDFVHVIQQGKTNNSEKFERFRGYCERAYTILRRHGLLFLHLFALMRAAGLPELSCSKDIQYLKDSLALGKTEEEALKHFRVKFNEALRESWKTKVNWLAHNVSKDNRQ
Sequence of PI3Kδ (p110δ/p85α) Recombinant Human Protein (P27986 whole entry partner): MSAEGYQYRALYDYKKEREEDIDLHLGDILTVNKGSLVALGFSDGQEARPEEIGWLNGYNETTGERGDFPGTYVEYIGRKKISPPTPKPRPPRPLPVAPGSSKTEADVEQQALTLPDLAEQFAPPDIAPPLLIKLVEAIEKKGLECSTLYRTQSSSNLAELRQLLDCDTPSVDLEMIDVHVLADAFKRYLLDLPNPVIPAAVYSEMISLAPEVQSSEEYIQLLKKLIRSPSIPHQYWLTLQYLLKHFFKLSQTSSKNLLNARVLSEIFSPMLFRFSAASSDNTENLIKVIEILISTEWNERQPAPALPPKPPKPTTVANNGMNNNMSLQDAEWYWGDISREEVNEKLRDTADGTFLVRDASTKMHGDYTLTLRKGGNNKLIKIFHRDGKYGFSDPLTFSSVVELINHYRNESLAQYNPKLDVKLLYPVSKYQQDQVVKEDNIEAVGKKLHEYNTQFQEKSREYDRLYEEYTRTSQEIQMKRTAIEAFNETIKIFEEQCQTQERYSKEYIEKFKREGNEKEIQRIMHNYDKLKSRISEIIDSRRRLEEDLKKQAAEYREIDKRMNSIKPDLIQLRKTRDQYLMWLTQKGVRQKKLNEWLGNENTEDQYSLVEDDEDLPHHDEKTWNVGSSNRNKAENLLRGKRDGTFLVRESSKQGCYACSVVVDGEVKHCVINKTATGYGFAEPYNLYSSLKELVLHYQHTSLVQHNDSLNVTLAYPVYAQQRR
Excerpt: Materials: [γ-^33P]ATP (10 mCi/mL) and Wheat Germ Agglutinin (WGA) YSi SPA Scintillation Beads was purchased from Perkin Elmer (Waltham, Mass.). Lipid kinase substrate, D-myo-Phosphatidylinositol 4,5-bisphosphate (PtdIns(4,5)P2)D (+)-sn-1,2-di-O-octanoylglyceryl, 3-O-phospho linked (PIP2), CAS 204858-53-7, was purchased from Echelon Biosciences (Salt Lake City, Utah). PI3Kδ (p110δ/p85α) Recombinant Human Protein was purchased from Eurofins (St Charles, Mo.). ATP, MgCl2, DTT, EDTA, MOPS and CHAPS were purchased from Sigma Aldrich (St. Louis, Mo.).
as §1, with “PI3Kδ” for “PI3Kγ”, “3.4” for “13”, “PI3Kδ.” for “PI3Kγ.”, “(PerkinElmer).” for “(Perkin-Elmer).”

Assay [3] has as its system Phosphorylated Ribosomal Protein S6 (RPS6) in THP-1 cells. The assay can be described thus: THP-1 RPS6 ELISA Assay. The class given is cell-based, Human. As to conditions: THP-1 cells, 10 nM MCP-1, read-out: PI3Kγ_THP1_RPS6_ELISA IC50. In short, it runs like this:
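Cells serum-starved overnight, pre-incubated with compounds 2 h at 37° C, then stimulated with 10 nM MCP-1 for 15 min. Lysates assayed for phospho-RPS6 by ELISA read at 450 nm. IC50 from percent inhibition vs log concentration curve fit.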
On the technique in general: An ELISA detects its analyte on a solid surface through an enzyme-linked reagent.

With “2-(3-(5-amino-6-(2-methylthiazol-5-yl)pyrazin-2-yl)-4-methylphenyl)-3,3,3-trifluoro-2-hydroxypropanamide trifluoroacetate [Example 72]”, the pIC50 in assay [1] (Table A3), in assay [2] (Table A3) and in assay [3] (Table A3) was greater than 7.00 throughout.
Turning to `CCOC(=O)C1CC(c2nc(-c3cc(C(O)(C(N)=O)C(F)(F)F)ccc3C)cnc2N)C1` (single isomer, unassigned) [Example 109, Ethyl 3-(3-amino-6-(5-(3-amino-1,1,1-trifluoro-2-hydroxy-3-oxopropan-2-yl)-2-methylphenyl)pyrazin-2-yl)cyclobutane-1-carboxylate], the negative-log IC50 (pIC50) was greater than 7.00 in assay [1] (Table A4) and greater than 6.30 in assay [2] (Table A4).
With `Cc1ccc(C(O)(C(N)=O)C(F)(F)F)cc1-c1cnc(N)c(C2CN(S(=O)(=O)c3cnn(C)c3)C2)n1` (single isomer, unassigned) [Example 107, 2-(3-(5-Amino-6-(1-((1-methyl-1H-pyrazol-4-yl)sulfonyl)azetidin-3-yl)pyrazin-2-yl)-4-methylphenyl)-3,3,3-trifluoro-2-hydroxypropanamide, trifluoroacetate salt], the pIC50 in assay [1] (Table A4) was greater than 7.00; in assay [2] (Table A4), greater than 5.70; in assay [3] (Homo sapiens, Table A4), greater than 6.00.
For `Cc1ccc(C(O)(C(N)=O)C(F)(F)F)cc1-c1cnc(N)c(C2CC(C(=O)NC(C)C)C2)n1` (single isomer, unassigned) [Example 110, 3-(3-Amino-6-(5-(3-amino-1,1,1-trifluoro-2-hydroxy-3-oxopropan-2-yl)-2-methylphenyl)pyrazin-2-yl)-N-isopropylcyclobutane-1-carboxamide], the negative logarithm of the IC50 (pIC50) in assay [1] (Table A4) and in assay [2] (Table A4) was greater than 6.30 each time.
Take `CCOC(=O)C1CC(c2nc(-c3cc(C(O)(C(N)=O)C(F)(F)F)ccc3C)cnc2N)C1` (single isomer, unassigned) [Example 108, Ethyl 3-(3-amino-6-(5-(3-amino-1,1,1-trifluoro-2-hydroxy-3-oxopropan-2-yl)-2-methylphenyl)pyrazin-2-yl)cyclobutane-1-carboxylate]: the pIC50 is greater than 6.30 in assay [1] (Table A4) and greater than 5.70 in assay [2] (Table A4).
Take `Cc1ccc(C(O)(C(=O)N(C)C)C(F)(F)F)cc1-c1cnc(N)c(-n2cncn2)n1` (stereo not drawn) [Example 95, 2-(3-(5-Amino-6-(1H-1,2,4-triazol-1-yl)pyrazin-2-yl)-4-methylphenyl)-3,3,3-trifluoro-2-hydroxy-N,N-dimethylpropanamide trifluoroacetate]: the pIC50 in assay [1] (Table A3) and in assay [2] (Table A3) was greater than 6.30 in each case.
Regarding `Cc1ccc(C(O)(C(N)=O)C(F)(F)F)cc1-c1cnc(N)c(C2CC(C(=O)NC(C)C)C2)n1` (single isomer, unassigned) [Example 111, 3-(3-Amino-6-(5-(3-amino-1,1,1-trifluoro-2-hydroxy-3-oxopropan-2-yl)-2-methylphenyl)pyrazin-2-yl)-N-isopropylcyclobutane-1-carboxamide], the negative logarithm of the IC50 (pIC50) in assay [1] (Table A4) is greater than 7.00.
